Test results taken from patent US20020085997A1, “TUMOUR VACCINE AND PROCESS FOR THE PREPARATION THEREOF” (priority 1995, published 2002).

Key:
CT-26 cells = assay: Protection of Balb/c mice by pre-immunisation with vaccine of foreign peptide-charged CT-26 colon carcinoma cells (prophylactic mouse model); assay type: in vivo; conditions: for animals protected: vaccinated twice s.c. 10^5 cells/mouse
[1] = tested on: highly tumorigenic variant of the M-3 cells; assay type: in vivo, mice; conditions: cells charged with peptide by means of TfpL/DNA complexes
M-3 cells = assay: Comparative FACS analysis of M-3 cells treated with FITC-labelled foreign peptide by various methods; assay type: cell-based, murine
M-3 melanoma metastases = assay: Curing of DBA/2 mice having M-3 melanoma metastases with vaccine of foreign peptide-charged melanoma cells (therapeutic mouse model); assay type: in vivo

Sequence | suitability of the peptide for producing an anti-tumour immunity (CT-26 cells; murine colon carcinoma CT-26, Balb/c) | animals protected (CT-26 cells) | animals developed tumours [1] | peptide binding to cells after washing step (M-3 cells; adjuvant mixing: 100 μg FITC-labelled peptide, 30 minutes ambient temperature, 10^6 M-3 cells) | detection of cell-bound FITC peptide by fluorescent microscopy (M-3 cells; pulsing, cytocentrifuged M-3 cells) | shift in fluorescence (M-3 cells; pulsing: incubation with 450 μg FITC peptide, 3 hours 37° C., M-3 cells) | shift in fluorescence compared with untreated cells or cells treated with polylysine alone (M-3 cells; transloading: 160 μg FITC-labelled peptide with TfpL/pL/DNA complex, 3 hours 37° C., M-3 cells) | animals cured (M-3 melanoma metastases; 160 μg peptide charged onto M-3 cells by TfpL/DNA complexes, 5 day metastasis, 10^5 irradiated cells/animal s.c. twice) | degree of systemic immune response of the tumour vaccine (M-3 melanoma metastases; adjuvant mixing of the peptide with the irradiated vaccines) | animals cured (M-3 melanoma metastases; complexes containing 0.5 μg of peptide, five-day metastasis) | mice cured (M-3 melanoma metastases; complexes containing 5 μg of peptide, five-day metastasis) | mice cured (M-3 melanoma metastases; complexes containing 50 μg of peptide, five-day metastasis) | mice able to eliminate the metastases (M-3 melanoma metastases; mice with metastases vaccinated with xenopeptised irradiated M-3 cells (TfpL and empty vector)) | degree of systemic immune response of the tumour vaccine (M-3 melanoma metastases; peptide administered to the cells by polylysine/transferrin, compared with incubation with peptide for 24 hours (pulsing)) | animals cured (M-3 melanoma metastases; vaccine of cells treated with 4 mg peptide by incubation (pulsing, 3 hours 37° C.)) | animals remained free from tumours (M-3 melanoma metastases; vaccine with 400 μg peptide applied by incubation (pulsing, 3 hours 37° C.)) | vaccinated mice able to eliminate a tumour challenge (CT-26 cells; irradiated CT-26 vaccine alienised with peptide complexed with TfpL or pL)
FFIGALEEI [Phe Phe Ile Gly Ala Leu Glu Glu Ile, synthetic peptide not hitherto found in nature, designed as ligand for MHC-I molecule of type H2-Kd] | confirmed | 4 out of 8 |  |  |  |  |  |  |  |  |  |  |  |  |  |  | 
LPEAIEGFG [Leu Pro Glu Ala Ile Glu Gly Phe Gly, control peptide, anchor amino acids at positions 2 and 9 replaced by proline and glycine, reference compound] |  |  | 7 out of 8 |  |  |  |  |  |  |  |  |  |  |  |  |  | 
LFEAIEGFI [Leu Phe Glu Ala Ile Glu Gly Phe Ile, viral peptide derived from the influenza virus haemagglutinin, H2-K^d-ligand, used as foreign peptide to charge tumour cells] |  | 6 out of 8 |  | at most negligible | practically undetectable | one power of ten | ~2 powers of ten | 7 out of 8 | inefficient | 2 out of 8 | 4 out of 8 | 6 out of 8 | 87.5% | significantly more marked | 1 out of 8 | 3 out of the 8 | 75%
